Like-named read-outs stand apart in the source and are kept apart here.
Assays:
[1] = parameters: species or system male mice; settings: mouse, in vivo
[2] = parameters: species or system male rats (SIV; printed "rate"); settings: rat, in vivo
[3] = parameters: species or system male white mice; settings: mouse, in vivo
[4] = in vivo; settings: mouse
[5] = parameters: species or system male mice (NMRI); settings: in vivo
[6] = parameters: species or system mice and rats; settings: in vivo

CCOC(=O)[C@]1(c2ccccc2)C=C[C@@H](N2CCN(c3ccccc3)CC2)CC1 (relative stereo) [4r-(4'-Phenyl-piperazino-1')-1c-phenyl-1t-cyclohexene-(2)]
Analgesia ED 50 Phenyl-p-Quinone Writhing Test ([1]; po): > 50.0 mg/kg | Decrease in Body Temperature in ° C ([2]; 200 mg/kg): -1.7 °C | Reduction of Spontaneous Motility by % Photocage ([3]; 10 mg/kg): 34% | Reduction of Spontaneous Motility by % Photocage ([3]; sc, 5 mg/kg): no effect | LD50 at 48 h ([4]; po): ~1600 mg/kg

CCOC(=O)[C@]1(c2ccccc2)C=C[C@@H](N2CCC(c3ccccc3)CC2)CC1 (relative stereo) [4r-(4'-Phenyl-piperidino-1')-1c-phenyl-1t-ethoxycarbonyl-cyclohexene-(2)]
Analgesia ED 50 Phenyl-p-Quinone Writhing Test ([1]; po): ca. 75.0 mg/kg | Decrease in Body Temperature in ° C [2]: no effect | Reduction of Spontaneous Motility by % Photocage ([3]; 100 mg/kg): 79% | LD50 at 48 h ([4]; po): 850 mg/kg | Aggressive Mouse ED 50 [5]: no effect

CCOC(=O)[C@]1(c2ccccc2)C=C[C@@H](N2CCCCC2)CC1 (relative stereo) [4r-(Piperidino-1')-1c-phenyl-1t-ethoxycarbonyl-cyclohexene-(2)]
Analgesia ED 50 Phenyl-p-Quinone Writhing Test ([1]; sc): > 20.0 mg/kg | Decrease in Body Temperature in ° C ([2]; sc, 50 mg/kg): -0.1 °C | Reduction of Spontaneous Motility by % Photocage ([3]; sc, 40 mg/kg): 11% | LD50 at 48 h ([4]; sc): 390 mg/kg | Aggressive Mouse ED 50 ([5]; sc): no effect

CCOC(=O)[C@]1(c2ccccc2)C=C[C@@H](N(C)C)CC1 (relative stereo) [4r-Dimethyl-amino-1c-phenyl-1t-ethoxycarbonyl-cyclohexene-(2)]
Analgesia ED 50 Phenyl-p-Quinone Writhing Test ([1]; po): 118.0 mg/kg | Analgesia ED 50 Phenyl-p-Quinone Writhing Test ([1]; sc): 14.6 mg/kg | Decrease in Body Temperature in ° C ([2]; sc): no effect | Reduction of Spontaneous Motility by % Photocage ([3]; sc, 5 mg/kg): 0% | Reduction of Spontaneous Motility by % Photocage ([3]; sc, 20 mg/kg): 25% | LD50 at 48 h ([4]; po): 490 mg/kg | LD50 at 48 h ([4]; sc): 136 mg/kg | Aggressive Mouse ED 50 ([5]; sc): no effect

CCOC(=O)[C@]1(c2ccccc2)C=C[C@@H](N2CCN(c3ccccc3OC)CC2)CC1 (relative stereo) [4r-[4'-(2-Methoxy-phenyl)piperazino-1']-1c-phenyl-1t-ethoxycarbonyl-cyclohexene-(2)]
Analgesia ED 50 Phenyl-p-Quinone Writhing Test ([1]; po): > 150.00 mg/kg | Reduction of Spontaneous Motility by % Photocage ([3]; 50 mg/kg): 17% | LD50 at 48 h ([4]; po): > 1600 mg/kg

CCOC(=O)[C@]1(c2ccccc2)C=C[C@H](N(C)C)CC1 (relative stereo) [Example 1, 4r-Dimethylamino-1t-phenyl-1c-ethoxycarbonyl-cyclohexene-(2)]
Analgesic potency/activity (in words) [1]: more potent analgesics than (±)-3r-dimethylamino-4c-phenyl-4t-ethoxycarbonyl-cyclohexene-(1) (Valoron ^R), a positional isomer of the former and Dolantin ^R | Analgesia ED 50 Phenyl-p-Quinone Writhing Test ([1]; po): 13.6 mg/kg | Analgesia ED 50 Phenyl-p-Quinone Writhing Test ([1]; sc): 3.0 mg/kg | Decrease in Body Temperature in ° C ([2]; sc, 20 mg/kg): -1.4 °C | Reduction of Spontaneous Motility by % Photocage ([3]; sc, 5 mg/kg): 38% | Reduction of Spontaneous Motility by % Photocage ([3]; sc, 10 mg/kg): 82% | LD50 at 48 h ([4]; po): 297 mg/kg | LD50 at 48 h ([4]; sc): 155 mg/kg | Aggressive Mouse ED 50 ([5]; sc, 30 min): 4.0 mg/kg

CCOC(=O)[C@]1(c2ccccc2)C=C[C@H](N2CCCCC2)CC1 (relative stereo) [Example 2, 4r-(Piperidino-1')-1t-phenyl-1c-ethoxycarbonyl-cyclohexene-(2)]
Analgesia ED 50 Phenyl-p-Quinone Writhing Test ([1]; sc): 5.3 mg/kg | Decrease in Body Temperature in ° C ([2]; sc, 25 mg/kg): -1.6 °C | Reduction of Spontaneous Motility by % Photocage ([3]; sc, 10 mg/kg): 93% | LD50 at 48 h ([4]; sc): 150 mg/kg | Aggressive Mouse ED 50 ([5]; sc, 30 min): 8.0 mg/kg

CCOC(=O)[C@]1(c2ccccc2)C=C[C@H](N2CCC(c3ccccc3)CC2)CC1 (relative stereo) [Example 3, 4r-(4'-Phenylpiperidino-1')-1t-phenyl-1c-ethoxycarbonylcyclohexene-(2)]
Analgesia ED 50 Phenyl-p-Quinone Writhing Test ([1]; po): 10.0 mg/kg | Decrease in Body Temperature in ° C ([2]; 50 mg/kg): -0.5 °C | Reduction of Spontaneous Motility by % Photocage ([3]; 25 mg/kg): 91% | LD50 at 48 h ([4]; po): 800 mg/kg | Aggressive Mouse ED 50 ([5]; po, 30 min): 30 mg/kg

CCOC(=O)[C@]1(c2ccccc2)C=C[C@H](N2CCN(c3ccccc3OC)CC2)CC1 (relative stereo) [Example 4, 4r-[4'-(2-Methoxyphenyl)piperazino-1']-1t-phenyl-1c-ethoxycarbonyl-cyclohexene-(2)]
Analgesia ED 50 Phenyl-p-Quinone Writhing Test ([1]; po): 50.0 mg/kg | Reduction of Spontaneous Motility by % Photocage ([3]; 50 mg/kg): 86% | LD50 at 48 h ([4]; po): ~2000 mg/kg

CCOC(=O)[C@]1(c2ccccc2)C=C[C@H](N2CCN(c3ccccc3)CC2)CC1 (relative stereo) [Example 5, 4r-(4'-Phenylpiperazino-1')-1t-phenyl-1c-ethoxycarbonylcyclohexene-(2)]
Analgesia ED 50 Phenyl-p-Quinone Writhing Test ([1]; po): 25.0 mg/kg | Decrease in Body Temperature in ° C ([2]; 100 mg/kg): -2.6 °C | Reduction of Spontaneous Motility by % Photocage ([3]; 10 mg/kg): 59% | Reduction of Spontaneous Motility by % Photocage ([3]; 50 mg/kg): 94% | Reduction of Spontaneous Motility by % Photocage ([3]; sc, 5 mg/kg): 71% | LD50 at 48 h ([4]; po): 1600 mg/kg | Aggressive Mouse ED 50 ([5]; po, 30 min): 25 mg/kg

CCOC(=O)C1(c2ccccc2)CCN(C)CC1 [Dolantin, Ethyl 1-methyl 4-phenyl-piperidin-4-carboxylate]
Analgesia ED 50 Phenyl-p-Quinone Writhing Test ([1]; po): 28.5 mg/kg | Analgesia ED 50 Phenyl-p-Quinone Writhing Test ([1]; sc): 6.3 mg/kg | Decrease in Body Temperature in ° C [2]: no effect | Decrease in Body Temperature in ° C ([2]; sc): no effect | Reduction of Spontaneous Motility by % Photocage [3]: no effect | Reduction of Spontaneous Motility by % Photocage ([3]; sc, 15 mg/kg): 30% | LD50 at 48 h ([4]; po): 252 mg/kg | LD50 at 48 h ([4]; sc): 154 mg/kg | Aggressive Mouse ED 50 [5]: no effect | Aggressive Mouse ED 50 ([5]; sc, 30 min): > 15 mg/kg | Neuroleptic activity (in words) [6]: no significant neuroleptic activity

From patent publication US4008233A (priority 1972, dated 1977)
